Experimental data from patent US10988474B2, “Compounds acting at multiple prostaglandin receptors giving a general anti-inflammatory response” (ALLERGAN, INC., priority 2011, dated 2021).

Tests used:
Type in all cases: cell-based
[1] = molecular target: T1, human prostanoid EP1 receptor (Homo sapiens, UniProt P34995); test: FLIPR Ca2+ signaling PG antagonist assay, EP1 stable cell line; details: HEK-293 EBNA cells, human recombinant EP1, no exogenous G-protein; standard agonist PGE2
T1 construct: expressed in transfected cells
T1 sequence (P34995 1-402): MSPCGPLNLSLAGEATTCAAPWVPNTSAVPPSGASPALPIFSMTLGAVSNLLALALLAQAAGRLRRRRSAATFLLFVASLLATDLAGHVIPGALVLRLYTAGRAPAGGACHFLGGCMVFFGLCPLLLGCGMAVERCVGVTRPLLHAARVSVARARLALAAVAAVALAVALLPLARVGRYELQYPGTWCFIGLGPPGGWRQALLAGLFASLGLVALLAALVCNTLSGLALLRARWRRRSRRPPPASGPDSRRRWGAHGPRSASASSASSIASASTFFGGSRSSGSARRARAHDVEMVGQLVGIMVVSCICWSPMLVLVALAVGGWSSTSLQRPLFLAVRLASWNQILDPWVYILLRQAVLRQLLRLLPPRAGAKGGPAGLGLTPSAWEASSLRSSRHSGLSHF
Summary of the method: (§1)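 Stable HEK-293 EBNA lines (DP1 with chimeric Gqs, EP3 with Gqi, EP1 and FP without exogenous G protein) were Fluo-4AM-loaded and pretreated 4.5 min at 37 °C with compound (0.1–30 μM). Agonist (BW 245C for DP1, PGE2 for EP1/EP3, 17-phenyl-PGF2α for FP) was then added at 10^−11–10^−5 M. Peak Ca2+ fluorescence was taken relative to agonist at 10^−6 M.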

[2] = molecular target: T2, human prostanoid FP receptor (Homo sapiens, UniProt P43088); test: FLIPR Ca2+ signaling PG antagonist assay, FP stable cell line; details: HEK-293 EBNA cells, human recombinant FP, no exogenous G-protein; standard agonist 17-phenyl-PGF2α
T2 construct: expressed in transfected cells
Summary of the method: as §1

[3] = molecular target: T3, human prostanoid EP2 receptor (Homo sapiens, UniProt P43116); test: FLIPR Ca2+ signaling PG antagonist assay, EP2 stable cell line; details: HEK-293 EBNA cells, human recombinant EP2 with chimeric Gqs; standard agonist PGE2
T3 construct: expressed in transfected cells
Summary of the method: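 HEK-293 EBNA stable lines; EP2 co-expressed with chimeric Gqs, EP1/IP/TP with no exogenous G protein. Fluo-4AM-loaded cells pretreated 4.5 min at 37 °C with compound (0.1–30 μM; TP 0.067–1 μM), then standard agonist (PGE2, cicaprost, U-46619) 10^−11–10^−5 M (TP 10^−12–10^−6 M); peak fluorescence read 3.5 min, nonlinear regression.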

[4] = molecular target: T4, human prostanoid EP4 receptor (Homo sapiens, UniProt P35408); test: FLIPR Ca2+ signaling PG antagonist assay, EP4 stable cell line; details: HEK-293 EBNA cells, human recombinant EP4 with chimeric Gqs; standard agonist PGE2
T4 construct: expressed in transfected cells
Summary of the method: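 Antagonism at human EP4 was assessed as a Ca^2+ signal in stable HEK-293 EBNA transfectants carrying chimeric Gqs. Dye-loaded cells in HBSS-HEPES at 37° C received test compound, then a 7-point 10-fold PGE2 series. Fluorescence was excited at 470-495 nm and read at 515-575 nm for 3.5 minutes, with each condition run in triplicate and buffer used as the negative control.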

[5] = molecular target: T5, human prostanoid DP1 receptor (Homo sapiens, UniProt Q13258); test: FLIPR Ca2+ signaling PG antagonist assay, DP1 stable cell line; details: HEK-293 EBNA cells, human recombinant DP1 with chimeric Gqs; standard agonist BW 245C; read-out: DP (Kb, PG antagonist activity)
T5 construct: expressed in transfected cells
T5 sequence (Q13258 1-359): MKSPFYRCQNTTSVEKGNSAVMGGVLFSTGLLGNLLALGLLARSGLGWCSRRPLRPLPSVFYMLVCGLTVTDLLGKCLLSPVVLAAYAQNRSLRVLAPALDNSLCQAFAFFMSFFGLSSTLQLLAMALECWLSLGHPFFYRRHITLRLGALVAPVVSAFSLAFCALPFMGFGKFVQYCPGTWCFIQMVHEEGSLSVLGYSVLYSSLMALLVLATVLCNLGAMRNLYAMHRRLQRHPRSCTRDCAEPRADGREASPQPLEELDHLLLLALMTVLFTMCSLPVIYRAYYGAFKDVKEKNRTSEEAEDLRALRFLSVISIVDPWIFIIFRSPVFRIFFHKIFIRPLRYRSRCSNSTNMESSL
Summary of the method: as §1

T2 sequence (P43088 whole entry): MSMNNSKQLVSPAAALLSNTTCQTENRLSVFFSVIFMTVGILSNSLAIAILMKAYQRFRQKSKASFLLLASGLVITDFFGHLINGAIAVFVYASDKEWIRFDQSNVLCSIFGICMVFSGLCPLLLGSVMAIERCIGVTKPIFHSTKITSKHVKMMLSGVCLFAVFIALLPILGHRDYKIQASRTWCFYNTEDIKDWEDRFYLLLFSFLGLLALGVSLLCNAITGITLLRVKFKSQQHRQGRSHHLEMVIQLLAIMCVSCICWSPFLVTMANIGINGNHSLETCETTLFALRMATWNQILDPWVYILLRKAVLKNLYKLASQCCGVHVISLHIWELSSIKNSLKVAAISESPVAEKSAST
T3 sequence (P43116 whole entry): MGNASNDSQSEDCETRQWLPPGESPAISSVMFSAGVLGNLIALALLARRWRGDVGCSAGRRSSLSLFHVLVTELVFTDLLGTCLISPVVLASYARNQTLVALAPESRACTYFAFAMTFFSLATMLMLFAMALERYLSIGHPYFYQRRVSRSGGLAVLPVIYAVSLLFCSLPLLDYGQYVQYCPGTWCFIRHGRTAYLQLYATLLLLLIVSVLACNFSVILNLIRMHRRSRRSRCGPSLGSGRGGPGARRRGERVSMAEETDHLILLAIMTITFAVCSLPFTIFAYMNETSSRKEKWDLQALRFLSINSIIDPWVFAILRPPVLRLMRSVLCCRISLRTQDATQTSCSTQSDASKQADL
T4 sequence (P35408 whole entry): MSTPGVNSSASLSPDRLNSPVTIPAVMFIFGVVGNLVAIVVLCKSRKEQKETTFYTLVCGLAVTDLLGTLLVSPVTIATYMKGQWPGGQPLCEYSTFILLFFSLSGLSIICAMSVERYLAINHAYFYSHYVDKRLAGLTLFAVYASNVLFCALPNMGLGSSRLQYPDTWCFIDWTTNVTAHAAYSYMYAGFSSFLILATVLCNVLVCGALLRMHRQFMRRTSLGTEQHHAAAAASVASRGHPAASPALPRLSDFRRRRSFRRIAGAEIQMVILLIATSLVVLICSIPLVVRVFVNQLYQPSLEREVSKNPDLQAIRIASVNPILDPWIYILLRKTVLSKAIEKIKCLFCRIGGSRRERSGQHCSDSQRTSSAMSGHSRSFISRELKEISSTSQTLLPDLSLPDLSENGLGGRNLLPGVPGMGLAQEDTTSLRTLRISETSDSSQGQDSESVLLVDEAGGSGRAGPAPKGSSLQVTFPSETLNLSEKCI

For CCC(CC)COc1ccc(Br)cc1Cn1nc(C)c2cc(C(=O)O)cnc21 [Example 59, 1-[5-Bromo-2-(2-Ethyl-Butoxy)-Benzyl]-3-Methyl-1H-Pyrazolo[3,4-B]Pyridine-5-Carboxylic Acid], the Kb [1] was 280 nM, the Kb [2] was 1300 nM and the Kb [3] was ≥ 10000 nM. For the same compound, the Kb [4] was 190 nM and the Kb [5] was 520 nM.

CCC(CC)COc1ccc(Cl)cc1Cn1nc(C)c2cc(C(=O)O)cnc21 [Example 60, 1-[5-Chloro-2-(2-Ethyl-Butoxy)-Benzyl]-3-Methyl-1H-Pyrazolo[3,4-B]Pyridine-5-Carboxylic Acid] was tested, and the Kb [1] was 410 nM, the Kb [2] was 2500 nM and the Kb [3] was 7500 nM. It also gave a Kb [4] of 150 nM and a Kb [5] of 580 nM.

For Cc1nn(Cc2cc(Cl)ccc2OCC(C)C)c2ncc(C(=O)O)cc12 [Example 61, 1-(5-Chloro-2-Isobutoxy-Benzyl)-3-Methyl-1H-Pyrazolo[3,4-B]Pyridine-5-Carboxylic Acid], the Kb [1] was 180 nM, the Kb [2] was 1500 nM and the Kb [3] was ≥ 10000 nM. It also gave a Kb [4] of 760 nM and a Kb [5] of 740 nM.

In the case of CCC(CC)COc1ccc(Cl)cc1Cn1ncc2cc(C(N)=O)ncc21 [Example 62, 1-[5-Chloro-2-(2-Ethyl-Butoxy)-Benzyl]-1H-Pyrazolo[3,4-C]Pyridine-5-Carboxylic Acid Amide], the Kb [1] is reported as ≥ 10000 nM, the Kb [2] is reported as ≥ 10000 nM and the Kb [3] is reported as ≥ 10000 nM. The Kb [4] was ≥ 10000 nM and the Kb [5] was 5800 nM.

CCC(CC)COc1ccc(Cl)cc1Cn1ncc2cc(C(=O)O)ncc21 [Example 63, 1-[5-Chloro-2-(2-Ethyl-Butoxy)-Benzyl]-1H-Pyrazolo[3,4-C]Pyridine-5-Carboxylic Acid] was tested, and the Kb [1] was 1200 nM, the Kb [2] was 2400 nM and the Kb [3] was ≥ 10000 nM. For the same compound, the Kb [4] was 2500 nM and the Kb [5] was ≥ 10000 nM.

CCc1nn(Cc2cc(Br)ccc2OCC(C)C)c2ccc(C(=O)O)cc12 [Example 64, 1-(5-Bromo-2-Isobutoxy-Benzyl)-3-Ethyl-1H-Indazole-5-Carboxylic Acid] was tested, and the Kb [1] was 5 nM, the Kb [2] was 190 nM and the Kb [3] was 3100 nM. The Kb [4] was 50 nM and the Kb [5] was 260 nM.

With CCc1nn(Cc2cc(Br)ccc2OCC(CC)CC)c2ccc(C(=O)O)cc12 [Example 65, 1-[5-Bromo-2-(2-Ethyl-Butoxy)-Benzyl]-3-Ethyl-1H-Indazole-5-Carboxylic Acid] the Kb [1] was 40 nM, the “FP (Kb, PG antagonist activity)” value [2] was “PAg” and the Kb [3] was 6500 nM. It also gave a Kb [4] of 55 nM and a Kb [5] of 1500 nM.

For Cc1cc2cc(C(=O)O)ccc2n1Cc1cc(Br)ccc1OCC(C)C [Example 66, 1-(5-Bromo-2-Isobutoxy-Benzyl)-2-Methyl-1H-Indole-5-Carboxylic Acid], the Kb [1] was 50 nM, the Kb [2] was 23 nM and the Kb [3] was ≥ 10000 nM. For the same compound, the Kb [4] was 1400 nM and the Kb [5] was ≥ 10000 nM.

CC(C)COc1ccc(Br)cc1Cn1ccc2cc(C(=O)O)ccc21 [Example 67, 1-(5-Bromo-2-Isobutoxy-Benzyl)-1H-Indole-5-Carboxylic Acid] was tested, and the Kb [1] was 60 nM, the Kb [2] was 100 nM and the Kb [3] was ≥ 10000 nM. The Kb [4] was 340 nM and the Kb [5] was ≥ 10000 nM.

In the case of CCC(CC)COc1ccc(Br)cc1Cn1c(C)cc2cc(C(=O)O)ccc21 [Example 68, 1-[5-Bromo-2-(2-Ethyl-Butoxy)-Benzyl]-2-Methyl-1H-Indole-5-Carboxylic Acid], the Kb [1] is reported as ≥ 10000 nM, the Kb [2] is reported as ≥ 10000 nM and the Kb [3] is reported as ≥ 10000 nM. For the same compound, the Kb [4] was 9700 nM and the Kb [5] was ≥ 10000 nM.

For CCC(CC)COc1ccc(Br)cc1Cn1ccc2cc(C(=O)O)ccc21 [Example 69, 1-[5-Bromo-2-(2-Ethyl-Butoxy)-Benzyl]-1H-Indole-5-Carboxylic Acid], the Kb [1] was 250 nM, the Kb [2] was 800 nM and the Kb [3] was ≥ 10000 nM. It also gave a Kb [4] of 130 nM and a Kb [5] of 3700 nM.

For CCC(CC)COc1ccc(Br)cc1Cn1ccc2ccc(C(=O)O)cc21 [Example 70, 1-[5-Bromo-2-(2-Ethyl-Butoxy)-Benzyl]-1H-Indole-6-Carboxylic Acid], the Kb [1] was 200 nM, the Kb [2] was ≥ 10000 nM and the Kb [3] was ≥ 10000 nM. The Kb [4] was 6000 nM and the Kb [5] was 2200 nM.
